Results taken from PubChem BioAssay AID256 (DTP/NCI, 2004).
Several values for one entry are separate records, joined by “and”; a condition that tells them apart may be missing. Identical values can stand only once. Toxic doses and inconclusive results are not listed.

System: CD2F1 mice, L1210 leukemia ip, survival T/C
Experiment: NCI In Vivo Anticancer Drug Screen. Data for tumor model L1210 Leukemia (intraperitoneal) in CD2F1 (CDF1) mice
Settings: higher = longer survival
Method in brief: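 Mice carrying a transplanted tumor received test compound or vehicle alone. The value is the measurement in the treated group divided by that in the vehicle-treated control group.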

[1] = endpoint: mean survival time, dose: 50.0 mg/kg/injection, schedule: Q04DX002 (ip), vehicle: saline with Tween-80
[2] = endpoint: mean survival time, dose: 100.0 mg/kg/injection, schedule: Q04DX003 (ip), vehicle: saline with Tween-80
[3] = endpoint: mean survival time, dose: 200.0 mg/kg/injection, schedule: Q04DX003 (ip), vehicle: saline with Tween-80
[4] = endpoint: mean survival time, dose: 100.0 mg/kg/injection, schedule: Q01DX001 (ip), vehicle: other
[5] = endpoint: mean survival time, dose: 200.0 mg/kg/injection, schedule: Q01DX001 (ip), vehicle: other
[6] = endpoint: mean survival time, dose: 400.0 mg/kg/injection, schedule: Q01DX001 (ip), vehicle: other
[7] = endpoint: mean survival time, dose: 100.0 mg/kg/injection, schedule: Q01DX009 (ip), vehicle: saline with Tween-80
[8] = endpoint: mean survival time, dose: 200.0 mg/kg/injection, schedule: Q01DX009 (ip), vehicle: saline with Tween-80
[9] = endpoint: mean survival time, dose: 400.0 mg/kg/injection, schedule: Q01DX009 (ip), vehicle: saline with Tween-80
[10] = endpoint: mean survival time, dose: 12.5 mg/kg/injection, schedule: Q01DX005 (ip), vehicle: other
[11] = endpoint: mean survival time, dose: 25.0 mg/kg/injection, schedule: Q01DX005 (ip), vehicle: other
[12] = endpoint: mean survival time, dose: 50.0 mg/kg/injection, schedule: Q01DX005 (ip), vehicle: other
[13] = endpoint: mean survival time, dose: 400.0 mg/kg/injection, schedule: Q04DX003 (ip), vehicle: saline with Tween-80

COc1ccc(OC)c(-c2cn(C3CC(O)C(CO)O3)c(=O)[nH]c2=O)c1 (stereo not given)
T/C (endpoint: median survival time, dose: 12.5 mg/kg/injection, schedule: Q01DX005 (ip), vehicle: water): 100 % of control
T/C (endpoint: median survival time, dose: 25.0 mg/kg/injection, schedule: Q01DX005 (ip), vehicle: water): 102 % of control
T/C (endpoint: median survival time, dose: 50.0 mg/kg/injection, schedule: Q01DX005 (ip), vehicle: water): 97 % of control
T/C (endpoint: median survival time, dose: 100.0 mg/kg/injection, schedule: Q01DX005 (ip), vehicle: water): 102 % of control
T/C (endpoint: median survival time, dose: 200.0 mg/kg/injection, schedule: Q01DX005 (ip), vehicle: water): 98 % of control

C1CC[N-]CC1.C1CC[N-]CC1.[Cl][Pd][Cl]
T/C (endpoint: mean survival time, dose: 25.0 mg/kg/injection, schedule: Q04DX002 (ip), vehicle: saline with Tween-80): 89 % of control
T/C [1]: 96 % of control

C/C=C/CNc1ccccc1
T/C (endpoint: mean survival time, dose: 50.0 mg/kg/injection, schedule: Q01DX009 (ip), vehicle: saline): 102 % of control
T/C (endpoint: mean survival time, dose: 100.0 mg/kg/injection, schedule: Q01DX009 (ip), vehicle: saline): 101 % of control
T/C [2]: 95 % of control
T/C (endpoint: mean survival time, dose: 200.0 mg/kg/injection, schedule: Q01DX009 (ip), vehicle: saline): 96 % of control
T/C [3]: 97 % of control

O=C(O/N=C(\c1ccccc1)c1cccs1)N(c1ccccc1)c1ccccc1
T/C [4]: 92 % of control
T/C [5]: 98 % of control
T/C [6]: 92 % of control

CCOC(=O)C(O)(C(=O)OCC)C(C)C
T/C [7]: 94 % of control
T/C [8]: 100 % of control
T/C [9]: 94 % of control

O=[N+]([O-])c1ccc2nc(Cl)sc2c1
T/C (endpoint: mean survival time, dose: 25.0 mg/kg/injection, schedule: Q01DX009 (ip), vehicle: saline with Tween-80): 102 % of control
T/C (endpoint: mean survival time, dose: 50.0 mg/kg/injection, schedule: Q01DX009 (ip), vehicle: saline with Tween-80): 103 % of control
T/C [7]: 100 % of control
T/C [2]: 86 % of control

CCCCCCCCOC(=O)c1cc([N+](=O)[O-])c(Sc2ncnc3nc[nH]c23)c([N+](=O)[O-])c1
T/C (endpoint: mean survival time, dose: 11.0 mg/kg/injection, schedule: Q01DX005 (ip), vehicle: other): 112 % of control
T/C [10]: 115 % of control
T/C [11]: 172 % of control
T/C [12]: 118 % of control
T/C (endpoint: mean survival time, dose: 100.0 mg/kg/injection, schedule: Q01DX005 (ip), vehicle: other): 107 % of control

Cc1[nH]c2cc(Cl)ccc2c1CC(=O)O
T/C [4]: 101 % of control
T/C [5]: 98 % of control
T/C [6]: 98 % of control

O=c1cc(O)cnn1C1OC(CO)C(O)C1O (stereo not given)
T/C (endpoint: mean survival time, dose: 25.0 mg/kg/injection, schedule: Q01DX009 (ip), vehicle: water): 118 % of control and 110 % of control
T/C (endpoint: mean survival time, dose: 50.0 mg/kg/injection, schedule: Q01DX009 (ip), vehicle: water): 114 % of control and 117 % of control and 112 % of control
T/C (endpoint: mean survival time, dose: 100.0 mg/kg/injection, schedule: Q01DX009 (ip), vehicle: water): 118 % of control (2×) and 108 % of control
T/C (endpoint: mean survival time, dose: 200.0 mg/kg/injection, schedule: Q01DX009 (ip), vehicle: water): 117 % of control and 108 % of control
T/C (endpoint: mean survival time, dose: 400.0 mg/kg/injection, schedule: Q01DX009 (ip), vehicle: water): 119 % of control

C1CC2(CCC13CS3)CS2 (stereo not given)
T/C [1]: 98 % of control
T/C (endpoint: mean survival time, dose: 100.0 mg/kg/injection, schedule: Q04DX002 (ip), vehicle: saline with Tween-80): 98 % of control
T/C (endpoint: mean survival time, dose: 200.0 mg/kg/injection, schedule: Q04DX002 (ip), vehicle: saline with Tween-80): 95 % of control

CCC/C=N\O
T/C (endpoint: mean survival time, dose: 100.0 mg/kg/injection, schedule: Q04DX003 (ip), vehicle: saline): 110 % of control
T/C (endpoint: mean survival time, dose: 200.0 mg/kg/injection, schedule: Q04DX003 (ip), vehicle: saline): 93 % of control
T/C (endpoint: mean survival time, dose: 400.0 mg/kg/injection, schedule: Q04DX003 (ip), vehicle: saline): 100 % of control

CC(C)(C)OC(=O)NC(CSSCC(NC(=O)OC(C)(C)C)C(=O)O)C(=O)O (stereo not given)
T/C [2]: 92 % of control
T/C [3]: 92 % of control
T/C [13]: 90 % of control

CCCCCCCCCCCCNC(=O)c1cc[n+](Cc2ccc(Cl)c(Cl)c2)cc1
T/C [2]: 103 % of control
T/C [3]: 96 % of control
T/C [13]: 94 % of control

COC1OC(COS(=O)(=O)c2ccc(C)cc2)C(O)C(O)C1O (stereo not given)
T/C (endpoint: mean survival time, dose: 100.0 mg/kg/injection, schedule: Q01DX001 (ip), vehicle: saline with Tween-80): 100 % of control
T/C [7]: 96 % of control
T/C (endpoint: mean survival time, dose: 200.0 mg/kg/injection, schedule: Q01DX001 (ip), vehicle: saline with Tween-80): 95 % of control
T/C [8]: 91 % of control
T/C (endpoint: mean survival time, dose: 400.0 mg/kg/injection, schedule: Q01DX001 (ip), vehicle: saline with Tween-80): 94 % of control
T/C [9]: 94 % of control

CC1CC(C)(C)OC(C(C)(C)C)O1 (stereo not given)
T/C (endpoint: mean survival time, dose: 50.0 mg/kg/injection, schedule: Q04DX002 (ip), vehicle: saline): 92 % of control
T/C (endpoint: mean survival time, dose: 100.0 mg/kg/injection, schedule: Q04DX002 (ip), vehicle: saline): 100 % of control
T/C (endpoint: mean survival time, dose: 200.0 mg/kg/injection, schedule: Q04DX002 (ip), vehicle: saline): 103 % of control

CCCc1nc2[nH]cnc(=S)c2[nH]1
T/C [10]: 110 % of control
T/C [11]: 108 % of control
T/C [12]: 96 % of control

ClC1(Cl)OC(Cl)(Cl)C(Cl)(Cl)OC1(Cl)Cl
T/C (endpoint: mean survival time, dose: 50.0 mg/kg/injection, schedule: Q04DX003 (ip), vehicle: other): 95 % of control
T/C (endpoint: mean survival time, dose: 100.0 mg/kg/injection, schedule: Q04DX003 (ip), vehicle: other): 91 % of control
T/C (endpoint: mean survival time, dose: 200.0 mg/kg/injection, schedule: Q04DX003 (ip), vehicle: other): 97 % of control

CCOC(=O)C1OC12c1cccc3cccc(c13)C21OC1C(=O)OCC (stereo not given)
T/C [2]: 97 % of control
T/C [3]: 95 % of control
T/C [13]: 91 % of control

CCCCNC(=O)CC(C)C(=O)O (stereo not given)
T/C [2]: 102 % of control
T/C [3]: 98 % of control
T/C [13]: 102 % of control

O=C(Nc1cccc2ccccc12)SCc1ccccc1
T/C (endpoint: mean survival time, dose: 50.0 mg/kg/injection, schedule: Q04DX002 (ip), vehicle: Klucel (hydroxypropylcellulose) (HPC)): 88 % of control
T/C (endpoint: mean survival time, dose: 100.0 mg/kg/injection, schedule: Q04DX002 (ip), vehicle: Klucel (hydroxypropylcellulose) (HPC)): 106 % of control
T/C (endpoint: mean survival time, dose: 200.0 mg/kg/injection, schedule: Q04DX002 (ip), vehicle: Klucel (hydroxypropylcellulose) (HPC)): 95 % of control

NCC(S)c1ccc(Cl)cc1 (stereo not given)
T/C (endpoint: mean survival time, dose: 12.5 mg/kg/injection, schedule: Q04DX003 (ip), vehicle: saline): 98 % of control
T/C (endpoint: mean survival time, dose: 25.0 mg/kg/injection, schedule: Q04DX003 (ip), vehicle: saline): 93 % of control
T/C (endpoint: mean survival time, dose: 50.0 mg/kg/injection, schedule: Q04DX003 (ip), vehicle: saline): 96 % of control

Nc1ncnc2c1nc([Se])n2C1OC(CO)C(O)C1O (stereo not given)
T/C (endpoint: mean survival time, dose: 12.5 mg/kg/injection, schedule: Q01DX005 (ip), vehicle: water): 100 % of control
T/C (endpoint: mean survival time, dose: 25.0 mg/kg/injection, schedule: Q01DX005 (ip), vehicle: water): 97 % of control
T/C (endpoint: mean survival time, dose: 50.0 mg/kg/injection, schedule: Q01DX005 (ip), vehicle: water): 100 % of control
T/C (endpoint: mean survival time, dose: 100.0 mg/kg/injection, schedule: Q01DX005 (ip), vehicle: water): 95 % of control
T/C (endpoint: mean survival time, dose: 200.0 mg/kg/injection, schedule: Q01DX005 (ip), vehicle: water): 90 % of control

CC(=O)Nc1ncc2ccccc2c1-c1ccc(N(CCCl)CCCl)cc1
T/C (endpoint: mean survival time, dose: 25.0 mg/kg/injection, schedule: Q04DX003 (ip), vehicle: DMSO): 105 % of control
T/C (endpoint: mean survival time, dose: 50.0 mg/kg/injection, schedule: Q04DX003 (ip), vehicle: DMSO): 94 % of control
T/C (endpoint: mean survival time, dose: 50.0 mg/kg/injection, schedule: Q04DX003 (ip), vehicle: Klucel (hydroxypropylcellulose) (HPC)): 95 % of control
T/C (endpoint: mean survival time, dose: 100.0 mg/kg/injection, schedule: Q04DX003 (ip), vehicle: DMSO): 111 % of control
T/C (endpoint: mean survival time, dose: 100.0 mg/kg/injection, schedule: Q04DX003 (ip), vehicle: Klucel (hydroxypropylcellulose) (HPC)): 104 % of control
T/C (endpoint: mean survival time, dose: 100.0 mg/kg/injection, schedule: Q04DX003 (ip), vehicle: saline + alcohol): 92 % of control
T/C (endpoint: mean survival time, dose: 200.0 mg/kg/injection, schedule: Q04DX003 (ip), vehicle: Klucel (hydroxypropylcellulose) (HPC)): 101 % of control
T/C (endpoint: mean survival time, dose: 200.0 mg/kg/injection, schedule: Q04DX003 (ip), vehicle: saline + alcohol): 101 % of control
T/C (endpoint: mean survival time, dose: 400.0 mg/kg/injection, schedule: Q04DX003 (ip), vehicle: DMSO): 150 % of control
T/C (endpoint: mean survival time, dose: 400.0 mg/kg/injection, schedule: Q04DX003 (ip), vehicle: Klucel (hydroxypropylcellulose) (HPC)): 104 % of control
T/C (endpoint: mean survival time, dose: 400.0 mg/kg/injection, schedule: Q04DX003 (ip), vehicle: saline + alcohol): 97 % of control
